In patent US20220133884A1, “COMPOUNDS USEFUL AS ADJUVANTS” (MILLENNIUM PHARMACEUTICALS, INC., priority 2019, published 2022):

Experiments:
T cells and NK cells = assay: Study 1: early lymphocyte activation marker CD69 on T cells and NK cells in lymph nodes (flow cytometry); format: in vivo, Balb/c mice; conditions: ~18 hours post subcutaneous injection, Compound I-263a 7.5 mg/kg, CpG 2.5 mg/kg
Procedure: (§1) Unless otherwise stated, immune cell profiling was performed using flow cytometry on a BD (Beckton Dickinson) LSRII Fortessa.
(§2) The goal of this study was to investigate the in vivo effects of Compound I-263a alone or in combination with a TLR9 agonist (CpG) with respect to the recruitment and activation of innate immune cells at regional draining lymph nodes (LNs). On day 0 in the evening, eight to ten week old female Balb/c mice (Jackson Labs, Bar Harbor, Me.) were injected subcutaneously bilaterally close to the two brachial LNs (50 μL each side) with one of the formulations shown in Table 1 (n=5 mice per group). On day 1 (˜18 hours post injection) the mice were euthanized. The inflamed brachial LNs as well as the distal non-inflamed inguinal LNs were harvested from each mouse individually. Single cell suspensions were generated by homogenizing the LNs on a 70μ cell strainer using 3 mL syringe plungers, followed by wash with FACS staining buffer (BD Biosciences, Cat #554657). The cell pellet was re-suspended in 100 μL of FACS buffer for staining on a 96-well U-bottom tissue culture plate (Corning). Each sample was stained using the flow cytometry panel (see Table 2 below) of antibodies followed by acquisition and analysis on BD LSRII Fortessa. For positive controls, 1 drop of ultracomp beads (Invitrogen, Cat #01-2222-42) were stained with 1 μL of the respective antibodies.

B16F10-OVA tumors = assay: Study 3: prophylactic vaccination and B16F10-OVA tumor challenge; format: in vivo, C57BL/6 mice; conditions: SC pre-treatment Day -14 to Day -4, tumor challenge Day 0; Ovalbumin 100 ug QWx2, Compound I-263a 15 mg/kg BIWx2, poly (I:C) 50 ug BIWx2; FIG. 5A/5B
Procedure: The goal of this study was to evaluate the prophylactic effects of OVA+Compound 1-263a vaccination in mice challenged with tumors expressing the OVA antigen (B16F10-OVA). The B16F10-OVA cell line was generated in-house by stable integration of the chicken ovalbumin gene into the Rosa26 locus. Eight to ten-week-old female C57BL/6 mice (Jackson Labs, Bar Harbor, Me.) were injected with one of the formulations shown in Table 5 subcutaneously (SC) near the nape. All mice were subsequently challenged on Day 0 with 0.3e6 B16F10-OVA tumor cells/mouse subcutaneously (n=16 mice/group, except group 5 (ovalbumin+Compound 1-263a) for which n=15). Tumor growth was measured every 2-3 days using digital calipers and tumor volume was calculated as: L×W×(W/2).

[1] = test system: dendritic cells (CD11c+ cells); assay: Study 1: activation of dendritic cells in lymph nodes after subcutaneous injection (flow cytometry); format: in vivo, Balb/c mice; conditions: ~18 hours post subcutaneous injection near brachial LNs, relative to vehicle treated mice
Procedure: as §1, §2

| Molecule | early lymphocyte activation marker CD69 on T cells in the brachial LNs (T cells and NK cells; FIG. 2a) | early lymphocyte activation marker CD69 on NK cells in the brachial LNs (T cells and NK cells; FIG. 2b) | growth of B16-F10 tumors expressing OVA (tumor protection) (B16F10-OVA tumors) | expression of marker CD86 on CD11c+ cells in the distal inguinal LNs ([1]; 7.5 mg/kg, FIG. 1b) | expression of marker CD40 on CD11c+ cells in the brachial LNs ([1]; Compound I-263a 7.5 mg/kg, CpG 2.5 mg/kg, FIG. 1a) | expression of marker CD86 on CD11c+ cells in the brachial LNs ([1]; Compound I-263a 7.5 mg/kg, CpG 2.5 mg/kg, FIG. 1b) |
| --- | --- | --- | --- | --- | --- | --- |
| Cc1sc(C(=O)c2cncnc2N[C@@H]2C[C@H](COS(N)(=O)=O)[C@@H](O)C2)cc1[C@@H]1NCCc2ccc(Cl)cc21 [Compound I-263a, [(1R,2S,4R)-4-{[5-({4-[(1R)-7-chloro-1,2,3,4-tetrahydroisoquinolin-1-yl]-5-methyl-2-thienyl}carbonyl)pyrimidin-4-yl]amino}-2-hydroxycyclopentyl]methyl sulfamate] | changes in the early lymphocyte activation marker CD69 were observed | changes in the early lymphocyte activation marker CD69 were observed | did not confer tumor protection | but not in the distal inguinal LNs | increases | increases |
| OVA: chicken ovalbumin protein antigen, EndoFit Ovalbumin, InvivoGen (protein, UniProt P01012 2-386, looked up) Ovalbumin: GSIGAASMEFCFDVFKELKVHHANENIFYCPIAIMSALAMVYLGAKDSTRTQINKVVRFDKLPGFGDSIEAQCGTSVNVHSSLRDILNQITKPNDVYSFSLASRLYAEERYPILPEYLQCVKELYRGGLEPINFQTAADQARELINSWVESQTNGIIRNVLQPSSVDSQTAMVLVNAIVFKGLWEKAFKDEDTQAMPFRVTEQESKPVQMMYQIGLFRVASMASEKMKILELPFASGTMSMLVLLPDEVSGLEQLESIINFEKLTEWTSSNVMEERKIKVYLPRMKMEEKYNLTSVLMAMGITDVFSSSANLSGISSAESLKISQAVHAAHAEINEAGREVVGSAEAGVDAASVSEEFRADHPFLFCIKHIATNAVLFFGRCVSP | – | – | did not confer tumor protection | – | – | – |
